Laboratory results published in patent US7655420B2, “Methods to increase or decrease bone density” (Celltech R & D, Inc., priority 2002, dated 2010).
Entries after “also recorded” stand apart in the source; their conditions may differ.

Key:
[1] = system: SOST expression; assay: BMP-6 induction of SOST expression in hMSC cells with test compounds (RT-PCR); format: cell-based, human; settings: for Results (effect on BMP-6 induction of SOST expression): BMP-6, 72 hrs; for induction of SOST expression by BMP-6 (BMP-induced SOST expression): 72 hrs, no single concentration stated in the sentence
Procedure: The previous example illustrates that SOST expression was enhanced by bone morphogenetic proteins and modulated by steroids such as dexamethasone. In this example, human MSC cells were incubated with bone morphogenetic proteins in the presence of various test agents to determine whether other steroids and compounds could affect the BMP-induction of SOST. SOST expression was monitored by reverse transcriptase polymerase chain reaction (RT-PCR).
Human mesenchymal cells (hMSCs) were plated in regular growth media containing 2% FCS and treated with BMP-6 either alone or in combination with the test compounds. The cells were harvested 72 hrs later and RNA was prepared for RT-PCR analysis of SOST expression.

[2] = system: caspase activity in hMSC cells; assay: apoptosis of hMSC cells by caspase activity (Homogeneous Caspase ELISA); format: cell-based, human; settings: for human sclerostin-induced increase in caspase activity, effect of caspase inhibitors / apoptosis of hMSC cells (caspase activity), rat versus human sclerostin: hMSC cells, 24 hrs; for human sclerostin-induced increase in caspase activity, effect of caspase inhibitors: Roche ELISA; for caspase activity: hMSC in osteoblast-inducing media, 20 μg/ml sclerostin or other protein, 24 hours
Procedure: Human mesenchymal (hMSC) cells were plated in Osteoblast-inducing media (Biowhittaker's MSCGM medium supplemented with 100 nM dexamethasone, 50 μg/ml ascorbic acid, and 10 mM β-glycerophosphate) at a density of 10,000 cells/cm^2 in 96-well dishes.
For apoptosis assays, cells were treated with sclerostin or commercially available preparations of the BMP antagonists noggin, chordin, gremlin or twisted gastrulation (Tsg) for 24 hours prior to assay for caspase activity. In some experiments, cells were treated for various times with a partially purified preparation of baculovirus-expressed human sclerostin (0 to 30 μg/ml) or an equal volume of a protein preparation purified from Sf9 conditioned media (control) in the absence or presence of Calbiochem's caspase inhibitors. Cells were harvested and processed for apoptosis assays using the Homogeneous Caspase ELISA (Roche) or Cell Death (Histone-Associated DNA Fragmentation, Roche).

O=C1C=C(S(=O)(=O)O)c2ccccc2C1=O [1,2-napthoquinone-4-sulfate]
Results (effect on BMP-6 induction of SOST expression) ([1]; compound at 1 × 10^−6 M): No Effect | Results (effect on BMP-6 induction of SOST expression) ([1]; compound at 5 × 10^−6 M): No Effect

COC(=O)C[C@H](NC(=O)[C@H](C)NC(=O)[C@@H](NC(=O)[C@H](Cc1ccc(O)cc1)NC(=O)OCc1ccccc1)C(C)C)C(=O)CF [Caspase-1, Inhibitor VI, reference compound]
human sclerostin-induced increase in caspase activity, effect of caspase inhibitors [2]: blocked | human sclerostin-induced increase in caspase activity, effect of caspase inhibitors ([2]; listed as Cas-1): efficiently blocked | human sclerostin-induced increase in caspase activity, effect of caspase inhibitors ([2]; listed as Caspase-1 inhibitor): effectively blocked

CC(=O)N[C@@H](CC(=O)O)C(=O)N[C@@H](CCC(=O)O)C(=O)N[C@H](C(=O)N[C@H](C=O)CC(=O)O)C(C)C [Caspase-3, Inhibitor I, reference compound]
human sclerostin-induced increase in caspase activity, effect of caspase inhibitors [2]: blocked | human sclerostin-induced increase in caspase activity, effect of caspase inhibitors ([2]; listed as Cas-3): efficiently blocked | human sclerostin-induced increase in caspase activity, effect of caspase inhibitors ([2]; listed as Caspase-3 inhibitor): effectively blocked

CC1(C)O[C@@H]2C[C@H]3[C@@H]4C[C@H](F)C5=CC(=O)C=C[C@]5(C)[C@@]4(F)[C@@H](O)C[C@]3(C)[C@]2(C(=O)CO)O1 [Fluocinolone acetonide]
induction of SOST expression by BMP-6 (BMP-induced SOST expression) [1]: blocks | Results (effect on BMP-6 induction of SOST expression) ([1]; compound at 1 × 10^−7 M): Inhibition | Results (effect on BMP-6 induction of SOST expression) ([1]; compound at 1 × 10^−7 M, listed as Fluo): blocked | Results (effect on BMP-6 induction of SOST expression) ([1]; compound at 1 × 10^−7 M, listed as fluocinolone acetonide): effectively blocked

C[C@]12CC[C@@H]3c4ccc(O)cc4C[C@@H](CCCCCCCCC[S+]([O-])CCCC(F)(F)C(F)(F)F)[C@H]3[C@@H]1CC[C@@H]2O (stereo partly drawn) [ICI 182,780]
Results (effect on BMP-6 induction of SOST expression) ([1]; compound at 1 × 10^−6 M): minimal effects; also recorded: No Effect

CC[C@H](C)C(=O)O[C@H]1C[C@@H](C)C=C2C=C[C@H](C)[C@H](CC[C@@H]3C[C@@H](O)CC(=O)O3)[C@H]21 [Lovastatin/Mevinolin, Lovastatin]
Results (effect on BMP-6 induction of SOST expression) ([1]; compound at 1 × 10^−7 M): No Effect | Results (effect on BMP-6 induction of SOST expression) ([1]; compound at 1 × 10^−7 M, listed as lovastatin): minimal effects

COc1cccc(-c2cc(=O)c3ccccc3o2)c1N [PD98059]
Results (effect on BMP-6 induction of SOST expression) ([1]; compound at 2 × 10^−6 M): No Effect

CCCCC[C@H](O)/C=C/[C@H]1[C@H](O)CC(=O)[C@@H]1C/C=C\CCCC(=O)O [Prostaglandin E2]
induction of SOST expression by BMP-6 (BMP-induced SOST expression) [1]: blocks | Results (effect on BMP-6 induction of SOST expression) ([1]; compound at 1 × 10^−6 M): Inhibition | Results (effect on BMP-6 induction of SOST expression) ([1]; compound at 1 × 10^−6 M, listed as PGE2): blocked | Results (effect on BMP-6 induction of SOST expression) ([1]; compound at 1 × 10^−6 M, listed as prostaglandin E2): effectively blocked | Results (effect on BMP-6 induction of SOST expression) ([1]; compound at 1 × 10^−7 M): Inhibition

CCc1[nH]c(-c2ccc(OC)cc2)nc1-c1ccncc1 [SB202474]
Results (effect on BMP-6 induction of SOST expression) ([1]; compound at 2 × 10^−6 M): No Effect

C[S+]([O-])c1ccc(-c2nc(-c3ccncc3)c(-c3ccc(F)cc3)[nH]2)cc1 (stereo not drawn) [SB203580]
Results (effect on BMP-6 induction of SOST expression) ([1]; compound at 2 × 10^−6 M): No Effect

CC(=O)S[C@@H]1CC2=CC(=O)CC[C@]2(C)[C@H]2CC[C@@]3(C)[C@@H](CC[C@@]34CCC(=O)O4)[C@H]12 [Spironolactone]
Results (effect on BMP-6 induction of SOST expression) ([1]; compound at 1 × 10^−6 M): No Effect | Results (effect on BMP-6 induction of SOST expression) ([1]; compound at 1 × 10^−7 M): No Effect

C[C@H](CCC(=O)NCCS(=O)(=O)O)[C@H]1CC[C@H]2[C@@H]3[C@@H](O)C[C@@H]4C[C@H](O)CC[C@]4(C)[C@H]3CC[C@]12C [Tauroursodeoxycholic acid]
Results (effect on BMP-6 induction of SOST expression) ([1]; compound at 2 × 10^−6 M): No Effect | Results (effect on BMP-6 induction of SOST expression) ([1]; compound at 2 × 10^−6 M, listed as tauroursodeoxycholic acid): minimal effects | Results (effect on BMP-6 induction of SOST expression) ([1]; compound at 2 × 10^−7 M): No Effect

C[C@]12C=CC(=O)C=C1CC[C@H]1[C@@H]3C[C@@H](O)[C@](O)(C(=O)CO)[C@@]3(C)C[C@H](O)[C@@]12F [Triamcinolone]
induction of SOST expression by BMP-6 (BMP-induced SOST expression) [1]: blocks | Results (effect on BMP-6 induction of SOST expression) ([1]; compound at 1 × 10^−7 M): blocked; also recorded: Inhibition | Results (effect on BMP-6 induction of SOST expression) ([1]; compound at 1 × 10^−7 M, listed as triamcinolone): blocked

Parathyroid Hormone (1-34): Calciotrophic Peptide (SVSEIQLMHNLGKHLNSMERVEWLRKKLQDVHNF; Parathyroid hormone; UniProt P01270 32-65, looked up, fragment)
Results (effect on BMP-6 induction of SOST expression) ([1]; compound at 1 × 10^−7 M): No Effect

B1: chordin: commercially available BMP antagonist (protein, UniProt Q9H2X0 27-955, looked up)
Chordin: AGPEPPVLPIRSEKEPLPVRGAAGCTFGGKVYALDETWHPDLGEPFGVMRCVLCACEAPQWGRRTRGPGRVSCKNIKPECPTPACGQPRQLPGHCCQTCPQERSSSERQPSGLSFEYPRDPEHRSYSDRGEPGAEERARGDGHTDFVALLTGPRSQAVARARVSLLRSSLRFSISYRRLDRPTRIRFSDSNGSVLFEHPAAPTQDGLVCGVWRAVPRLSLRLLRAEQLHVALVTLTHPSGEVWGPLIRHRALAAETFSAILTLEGPPQQGVGGITLLTLSDTEDSLHFLLLFRGLLEPRSGGLTQVPLRLQILHQGQLLRELQANVSAQEPGFAEVLPNLTVQEMDWLVLGELQMALEWAGRPGLRISGHIAARKSCDVLQSVLCGADALIPVQTGAAGSASLTLLGNGSLIYQVQVVGTSSEVVAMTLETKPQRRDQRTVLCHMAGLQPGGHTAVGICPGLGARGAHMLLQNELFLNVGTKDFPDGELRGHVAALPYCGHSARHDTLPVPLAGALVLPPVKSQAAGHAWLSLDTHCHLHYEVLLAGLGGSEQGTVTAHLLGPPGTPGPRRLLKGFYGSEAQGVVKDLEPELLRHLAKGMASLMITTKGSPRGELRGQVHIANQCEVGGLRLEAAGAEGVRALGAPDTASAAPPVVPGLPALAPAKPGGPGRPRDPNTCFFEGQQRPHGARWAPNYDPLCSLCTCQRRTVICDPVVCPPPSCPHPVQAPDQCCPVCPEKQDVRDLPGLPRSRDPGEGCYFDGDRSWRAAGTRWHPVVPPFGLIKCAVCTCKGGTGEVHCEKVQCPRLACAQPVRVNPTDCCKQCPVGSGAHPQLGDPMQADGPRGCRFAGQWFPESQSWHPSVPPFGEMSCITCRCGAGVPHCERDDCSLPLSCGSGKESRCCSRCTAHRRPAPETRTDPELEKEAEGS
caspase activity [2]: no increase; also recorded: no significant effect

B2: Tsg: twisted gastrulation, commercially available BMP antagonist (protein, UniProt Q9GZX9 26-223, looked up)
Twisted gastrulation protein …: CNKALCASDVSKCLIQELCQCRPGEGNCSCCKECMLCLGALWDECCDCVGMCNPRNYSDTPPTSKSTVEELHEPIPSLFRALTEGDTQLNWNIVSFPVAEELSHHENLVSFLETVNQPHHQNVSVPSNNVHAPYSSDKEHMCTVVYFDDCMSIHQCKISCESMGASKYRWFHNACCECIGPECIDYGSKTVKCMNCMF
caspase activity [2]: no increase; also recorded: no significant effect

B3: rat sclerostin: rat sclerostin protein (SEQ ID NO:8) (protein, listed as Rattus norvegicus)
chain: MQLSLAPCLACLLVHAAFVAVESQGWQAFKNDATEIIPGLREYPEPPQELENNQTMNRAENGGRPPHHPYDTKDVSEYSCRELHYTRFVTDGPCRSAKPVTELVCSGQCGPARLLPNAIGRVKWWRPNGPDFRCIPDRYRAQRVQLLCPGGAAPRSRKVRLVASCKCKRLTRFHNQSELKDFGPETARPQKGRKPRPRARGAKANQAELENAY
apoptosis of hMSC cells (caspase activity), rat versus human sclerostin [2]: induced the apoptosis | apoptosis of hMSC cells (caspase activity), rat versus human sclerostin ([2]; listed as Rat sclerostin): increased the apoptosis of hMSC cells but to a lesser extent

B4: gremlin: commercially available BMP antagonist (protein, UniProt O60565 25-184, looked up)
Gremlin-1: KKKGSQGAIPPPDKAQHNDSEQTQSPQQPGSRNRGRGQGRGTAMPGEEVLESSQEALHVTERKYLKRDWCKTQPLKQTIHEEGCNSRTIINRFCYGQCNSFYIPRHIRKEEGSFQSCSFCKPKKFTTMMVTLNCPELQPPTKKKRVTRVKQCRCISIDLD
caspase activity [2]: no increase; also recorded: no significant effect

B5: inactivated sclerostin: inactive preparation of sclerostin, as determined by lack of effects in other biological and biochemical assays (protein, UniProt Q9BQB4 24-213, looked up)
Sclerostin: QGWQAFKNDATEIIPELGEYPEPPPELENNKTMNRAENGGRPPHHPFETKDVSEYSCRELHFTRYVTDGPCRSAKPVTELVCSGQCGPARLLPNAIGRGKWWRPSGPDFRCIPDRYRAQRVQLLCPGGEAPRARKVRLVASCKCKRLTRFHNQSELKDFGTEAARPQKGRKPRPRARSAKANQAELENAY
modifications: inactivated preparation
caspase activity [2]: no significant effect | caspase activity ([2]; listed as inactive preparation of sclerostin): did not significantly affect
